Test results taken from PubChem BioAssay (NCI).
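Interpolation was linear, between the two tested concentrations surrounding the appropriate level; five concentrations were tested over 48 hours in 96-well plates. TGI: total growth inhibition.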

Tests used:
Assay in all cases: growth of human tumour cells (NCI), 48 h
SNB-19 CNS = test system: SNB-19 CNS
COLO 205 colon = test system: COLO 205 colon
SW-620 colon = test system: SW-620 colon
KM12 colon = test system: KM12 colon
CCRF-CEM leukemia = test system: CCRF-CEM leukemia
A498 renal = test system: A498 renal
HOP-92 NSCLC = test system: HOP-92 NSCLC
NCI-H23 lung = test system: NCI-H23 lung
HT29 colon = test system: HT29 colon
NCI-H226 lung = test system: NCI-H226 lung
K-562 leukemia = test system: K-562 leukemia
HOP-62 NSCLC = test system: HOP-62 NSCLC
OVCAR-4 ovarian = test system: OVCAR-4 ovarian
SN12C renal = test system: SN12C renal
SR leukemia = test system: SR leukemia
ACHN renal = test system: ACHN renal
LOX IMVI melanoma = test system: LOX IMVI melanoma
HL-60(TB) leukemia = test system: HL-60(TB) leukemia
UACC-257 melanoma = test system: UACC-257 melanoma
EKVX NSCLC = test system: EKVX NSCLC
KM20L2 colon = test system: KM20L2 colon
IGROV1 ovarian = test system: IGROV1 ovarian
SF-539 CNS = test system: SF-539 CNS
UACC-62 melanoma = test system: UACC-62 melanoma
SNB-75 CNS = test system: SNB-75 CNS
SK-MEL-5 melanoma = test system: SK-MEL-5 melanoma
SF-295 CNS = test system: SF-295 CNS
TK-10 renal = test system: TK-10 renal
OVCAR-5 ovarian = test system: OVCAR-5 ovarian
OVCAR-8 ovarian = test system: OVCAR-8 ovarian
RPMI-8226 leukemia = test system: RPMI-8226 leukemia
DLD-1 colon = test system: DLD-1 colon
CAKI-1 renal = test system: CAKI-1 renal
MOLT-4 leukemia = test system: MOLT-4 leukemia
786-0 renal = test system: 786-0 renal
NCI-H460 lung = test system: NCI-H460 lung
NCI/ADR-RES ovarian = test system: NCI/ADR-RES ovarian
OVCAR-3 ovarian = test system: OVCAR-3 ovarian
BT-549 breast = test system: BT-549 breast
SK-MEL-28 melanoma = test system: SK-MEL-28 melanoma
MDA-MB-231 breast = test system: MDA-MB-231 breast
MDA-N = test system: MDA-N
HCT-15 colon = test system: HCT-15 colon
DU-145 prostate = test system: DU-145 prostate
SF-268 CNS = test system: SF-268 CNS
HCC-2998 colon = test system: HCC-2998 colon
MCF7 breast = test system: MCF7 breast
HCT-116 colon = test system: HCT-116 colon
HS 578T breast = test system: HS 578T breast
SK-MEL-2 melanoma = test system: SK-MEL-2 melanoma
U251 CNS = test system: U251 CNS
M14 melanoma = test system: M14 melanoma
RXF 393 renal = test system: RXF 393 renal
A549 NSCLC = test system: A549 NSCLC
PC-3 prostate = test system: PC-3 prostate
MDA-MB-435 = test system: MDA-MB-435
SK-OV-3 ovarian = test system: SK-OV-3 ovarian
UO-31 renal = test system: UO-31 renal
T-47D breast = test system: T-47D breast
MALME-3M melanoma = test system: MALME-3M melanoma
NCI-H522 lung = test system: NCI-H522 lung

COC(=O)/C(=N\NC(C)(C)C)C(C(=O)C(=O)Nc1cc(C)ccc1C)c1nc2ccccc2[nH]c1=O (stereo not drawn)
TGI (SNB-19 CNS): > 100 µM | TGI (COLO 205 colon): > 100 µM | TGI (SW-620 colon): > 100 µM | TGI (KM12 colon): > 100 µM | TGI (CCRF-CEM leukemia): > 100 µM | TGI (A498 renal): > 100 µM | TGI (HOP-92 NSCLC): > 100 µM | TGI (NCI-H23 lung): > 100 µM | TGI (HT29 colon): > 100 µM | TGI (NCI-H226 lung): > 100 µM | TGI (K-562 leukemia): > 100 µM | TGI (HOP-62 NSCLC): > 100 µM | TGI (OVCAR-4 ovarian): > 100 µM | TGI (SN12C renal): > 100 µM | TGI (SR leukemia): > 100 µM | TGI (ACHN renal): > 100 µM | TGI (LOX IMVI melanoma): > 100 µM | TGI (HL-60(TB) leukemia): > 100 µM | TGI (UACC-257 melanoma): > 100 µM | TGI (EKVX NSCLC): > 100 µM | TGI (KM20L2 colon): > 100 µM | TGI (IGROV1 ovarian): > 100 µM | TGI (SF-539 CNS): > 100 µM | TGI (UACC-62 melanoma): > 100 µM | TGI (SNB-75 CNS): > 100 µM | TGI (SK-MEL-5 melanoma): > 100 µM | TGI (SF-295 CNS): > 100 µM | TGI (TK-10 renal): > 100 µM | TGI (OVCAR-5 ovarian): > 100 µM | TGI (OVCAR-8 ovarian): > 100 µM | TGI (RPMI-8226 leukemia): > 100 µM | TGI (DLD-1 colon): > 100 µM | TGI (CAKI-1 renal): > 100 µM | TGI (MOLT-4 leukemia): > 100 µM

O=[N+]([O-])c1ccc(NC(=S)N=Nc2c(O)[nH]c3ccc([N+](=O)[O-])cc23)cc1
TGI (786-0 renal): 32.3 µM | TGI (NCI-H460 lung): 41.9 µM | TGI (NCI/ADR-RES ovarian): 48.6 µM | TGI (OVCAR-3 ovarian): 47.5 µM | TGI (SNB-19 CNS): 69.3 µM | TGI (BT-549 breast): 33.7 µM | TGI (COLO 205 colon): > 100 µM | TGI (SK-MEL-28 melanoma): 80.7 µM | TGI (SW-620 colon): > 100 µM | TGI (KM12 colon): 37.6 µM | TGI (CCRF-CEM leukemia): 60.4 µM | TGI (A498 renal): 32.7 µM | TGI (MDA-MB-231 breast): 45 µM | TGI (MDA-N): 41.7 µM | TGI (HOP-92 NSCLC): 35.2 µM | TGI (NCI-H23 lung): 41.1 µM | TGI (HCT-15 colon): 46.8 µM | TGI (HT29 colon): 65.6 µM | TGI (NCI-H226 lung): 86.5 µM | TGI (K-562 leukemia): > 100 µM | TGI (HOP-62 NSCLC): 50.4 µM | TGI (OVCAR-4 ovarian): 40.8 µM | TGI (SN12C renal): > 100 µM | TGI (SR leukemia): > 100 µM | TGI (ACHN renal): 74 µM | TGI (DU-145 prostate): 49 µM | TGI (LOX IMVI melanoma): 49.1 µM | TGI (SF-268 CNS): 72.4 µM | TGI (HCC-2998 colon): 35.9 µM | TGI (HL-60(TB) leukemia): 73.1 µM | TGI (UACC-257 melanoma): 50.3 µM | TGI (MCF7 breast): 84.1 µM | TGI (EKVX NSCLC): 63.6 µM | TGI (HCT-116 colon): 46.3 µM | TGI (HS 578T breast): > 100 µM | TGI (SK-MEL-2 melanoma): 35.8 µM | TGI (IGROV1 ovarian): 40 µM | TGI (SF-539 CNS): > 100 µM | TGI (UACC-62 melanoma): 49.1 µM | TGI (U251 CNS): 50.8 µM | TGI (M14 melanoma): 41.9 µM | TGI (SNB-75 CNS): 42.8 µM | TGI (SK-MEL-5 melanoma): 30.7 µM | TGI (SF-295 CNS): 45.1 µM | TGI (TK-10 renal): 56.7 µM | TGI (RXF 393 renal): 37.1 µM | TGI (OVCAR-5 ovarian): 68 µM | TGI (A549 NSCLC): 48.1 µM | TGI (OVCAR-8 ovarian): > 100 µM | TGI (PC-3 prostate): 49.3 µM | TGI (RPMI-8226 leukemia): > 100 µM | TGI (MDA-MB-435): 38.7 µM | TGI (SK-OV-3 ovarian): 41.8 µM | TGI (UO-31 renal): 45.1 µM | TGI (T-47D breast): 63.1 µM | TGI (CAKI-1 renal): 43.2 µM | TGI (MALME-3M melanoma): 55.5 µM | TGI (MOLT-4 leukemia): > 100 µM | TGI (NCI-H522 lung): 60.5 µM
